Results: ChEMBL document CHEMBL1275532, “Potential for hepatitis C virus resistance to nitazoxanide or tizoxanide” (Antimicrob Agents Chemother, 2008)

Assays:
[1] = Cytotoxicity against human TIZ-9 cell harboring HCV genotype 1b after 4 days by neutral red dye uptake assay; assay type: cell-based; settings: TIZ-9 cells harboring HCV genotype 1b
[2] = Cytotoxicity against human NTZ-11 cell harboring HCV genotype 1b after 4 days by neutral red dye uptake assay; assay type: cell-based; settings: NTZ-11 cells harboring HCV genotype 1b
[3] = Selectivity Index, ratio of CC50 for TIZ-9 cell harboring HCV genotype 1b to EC50 for HCV genotype 1b in TIZ-9 replicon cell
[4] = Cytotoxicity against human RP7 cell harboring HCV genotype 1b after 4 days by neutral red dye uptake assay; assay type: cell-based; settings: RP7 cells harboring HCV genotype 1b
[5] = Selectivity Index, ratio of CC50 for RP7 cell harboring HCV genotype 1b to EC50 for HCV genotype 1b in RP7 replicon cell
Hepatitis C virus [6] = experiment: Antiviral activity against HCV genotype 1b in TIZ-9 replicon cell after 4 days by blot hybridization analysis; assay type: functional, organism-based, Hepacivirus hominis; settings: TIZ-9, 96 h
Hepatitis C virus [7] = experiment: Antiviral activity against HCV genotype 1b in NTZ-11 replicon cell after 4 days by blot hybridization analysis; assay type: functional, organism-based, Hepacivirus hominis; settings: NTZ-11, 96 h
Hepatitis C virus [8] = experiment: Antiviral activity against HCV genotype 1b in RP7 replicon cell after 4 days by blot hybridization analysis; assay type: functional, organism-based, Hepacivirus hominis; settings: 96 h
[9] = Selectivity Index, ratio of CC50 for NTZ-11 cell harboring HCV genotype 1b to EC50 for HCV genotype 1b in NTZ-11 replicon cell
Hepatitis C virus [10] = experiment: Antiviral activity against HCV genotype 1b obtained from NTZ-11 cells infected in Huh7.5 cell assessed as viral-induced colony formation efficiency at 1 uM after 10 to 14 days in presence of 125 ug/ml G418; assay type: functional, Hepacivirus hominis
Hepatitis C virus [11] = experiment: Antiviral activity against HCV genotype 1b obtained from TIZ-9 cells infected in Huh7.5 cell assessed as viral-induced colony formation efficiency at 1 uM after 10 to 14 days in presence of 125 ug/ml G418; assay type: functional, Hepacivirus hominis
Hepatitis C virus [12] = experiment: Antiviral activity against HCV genotype 1b obtained from RP7 cells infected in Huh7.5 cell assessed as viral-induced colony formation efficiency at 10 uM after 10 to 14 days in presence of 125 ug/ml G418; assay type: functional, Hepacivirus hominis
Hepatitis C virus [13] = experiment: Antiviral activity against HCV genotype 1b obtained from NTZ-11 cells infected in Huh7.5 cell assessed as viral-induced colony formation efficiency at 10 uM after 10 to 14 days in presence of 125 ug/ml G418; assay type: functional, Hepacivirus hominis
Hepatitis C virus [14] = experiment: Antiviral activity against HCV genotype 1b obtained from TIZ-9 cells infected in Huh7.5 cell assessed as viral-induced colony formation efficiency at 10 uM after 10 to 14 days in presence of 125 ug/ml G418; assay type: functional, Hepacivirus hominis
Hepatitis C virus [15] = experiment: Antiviral activity against HCV genotype 1b obtained from RP7 cells infected in Huh7.5 cell assessed as viral-induced colony formation efficiency at 1 uM after 10 to 14 days in presence of 125 ug/ml G418; assay type: functional, Hepacivirus hominis
Hepatitis C virus [16] = experiment: Antiviral activity against HCV genotype 1b in replicon system; assay type: functional, organism-based, Hepacivirus hominis
Hepatitis C virus [17] = experiment: Antiviral activity against HCV genotype 1a in replicon system; assay type: functional, organism-based, Hepacivirus hominis; settings: subtype 1a

SMILES | CC50 at 96 h [1] | CC50 at 96 h [2] | Ratio CC50/EC50 [3] | CC50 at 96 h [4] | Ratio CC50/EC50 [5] | EC50 (Hepatitis C virus [6]) | EC90 (Hepatitis C virus [6]) | EC50 (Hepatitis C virus [7]) | EC90 (Hepatitis C virus [7]) | EC50 (Hepatitis C virus [8]) | EC90 (Hepatitis C virus [8]) | Ratio CC50/EC50 [9] | Activity (Hepatitis C virus [10]) | Activity (Hepatitis C virus [11]) | Activity (Hepatitis C virus [12]) | Activity (Hepatitis C virus [13]) | Activity (Hepatitis C virus [14]) | Activity (Hepatitis C virus [15]) | EC50 (Hepatitis C virus [16]) | EC50 (Hepatitis C virus [17])
NC(=O)c1ncn([C@@H]2O[C@H](CO)[C@@H](O)[C@H]2O)n1 [RIBAVIRIN] | 95 µM | 66 µM | 1.8 | 77 µM | 1.1 | 52 µM | 123 µM | 47 µM | 107 µM | 69 µM | 122 µM | 1.4 |  |  |  |  |  |  |  | 
O=C(Nc1ncc([N+](=O)[O-])s1)c1ccccc1O [TIZOXANIDE] | 92 µM | 74 µM | 46 | 25 µM | 167 | 2 µM | 35 µM | 1.1 µM | 18 µM | 0.15 µM | 0.94 µM | 67 | 8% | 12% | 0% | 0% | 0% | 7% | 0.15 µM | 
C[C@@]1(O)[C@H](O)[C@@H](CO)O[C@H]1n1ccc(N)nc1=O | > 300 µM | > 300 µM | >136 | > 300 µM | >150 | 2.2 µM | 8.9 µM | 1.9 µM | 6.1 µM | 2 µM | 9 µM | >158 |  |  | 10% | 13% | 9% |  |  | 
CC(=O)Oc1ccccc1C(=O)Nc1ncc([N+](=O)[O-])s1 [NITAZOXANIDE] | 97 µM | 68 µM | 65 | 38 µM | 238 | 1.5 µM | 26 µM | 1.2 µM | 17 µM | 0.16 µM | 1.2 µM | 57 |  |  |  |  |  |  |  | 0.13 µM
